Legend:
A375 melanoma xenografts = test: Growth of subcutaneous A375 xenografts in nude mice; type: in vivo
Source text: In vivo experiments. Please see FIG. 2. The Institutional Animal Care and Use Committee at the Cleveland Clinic Foundation approved all procedures for animal experimentation. Five week-old NCR male athymic nude homozygous (nu/nu) mice (Taconic, Germantown, N.Y.) were inoculated with A375 tumors. Each experimental group contained 4 mice, each mouse bearing two tumors, on opposite flanks. There were four experimental groups (untreated, single agents, and the combination). Cultured tumor cells (4×10^6) were inoculated into flanks in the mid-axillary line. NO-Cbl was given twice daily (50 mg/kg s.c.) and recombinant trimeric Apo2L/TRAIL (50 mg/kg s.c.) was administered every other day, starting on day 2. Tumor volume was measured three times a week using the formula for a prolate spheroid: (4/3) πab^2 where 2a=major axis, 2b=minor axis. Formalin-fixed sections were processed by the Cleveland Clinic Histology Core. Sections were stained with hematoxylin and eosin and evaluated for pathologic changes in a blinded fashion.
Anti-tumor effects of NO-Cbl, Apo2L/TRAIL, and the combination in vivo. To test drug activity in vivo, subcutaneous A375 xenografts were inoculated in nude mice. FIG. 2. illustrates the effect of NO-Cbl, Apo2L/TRAIL and the combination on the growth of A375 melanoma xenografts. NCR male athymic nude (nulnu) mice (n=4 per group) were injected subcutaneously with 4×10^6 A375 cells. Drug treatments began on day two (2) after injection of tumor cells. NO-Cbl was administered twice daily for the duration of the study. Apo2L/TRAIL was administered every other day. The control mice received phosphate buffered saline. The tumor volume was measured three times per week. Data points represent the mean tumor volume (in cubic mm)±SEM. Daily drug treatments began on day 2 following implantation, at which time tumors were both visible and palpable. Untreated control tumors grew unimpeded. After 25 days, the tumors from mice treated with NO-Cbl were 67.4% smaller than the control tumors (p≦0.0002) and tumors from mice treated with Apo2L/TRAIL were 89.4% smaller than the control tumors (p≦0.00001). The tumors from mice treated with the combination of NO-Cbl and Apo2L/TRAIL were 95.7% smaller than the control tumors (p≦0.000005).

A375 cells = test: TUNEL apoptosis assay; type: cell-based, human; settings: single agent, 36 h; NO-Cbl 100 μM or Apo2L/TRAIL 100 ng/ml
Method: TUNEL assay. Please see FIG. 3. A375 cells were cultured for 36 h and exposed to various treatments (control, NO-Cbl, Apo2L/TRAIL and NO-Cbl+Apo2L/TRAIL. Apoptotic cells were detected by TUNEL (terminal deoxynucleotidyltransferase-mediated dUTP-biotin nick end-labeling) staining using a commercially available kit (APO-BRDU kit, BD-Pharmingen, San Diego, Calif.). Cells were processed according to the manufacturer's recommended protocol. The percentage of FITC-positive cells was analyzed by fluorescent activated cell scanning (FACS, Becton Dickinson, Facsvantage, San Diego, Calif.).
Cell line A375 has a defect in endogenous TRAIL gene induction therefore, additive cellular responses from exogenous TRAIL/Apo2L were avoided. TUNEL assays of A375 cells treated in vitro with NO-Cbl, Apo2L/TRAIL, or the combination were performed. FIG. 3 illustrates a TUNEL apoptosis assay in accordance with the present invention. A375 cells were treated with NO-Cbl, Apo-2L/TRAIL, and the combination. […] The highest levels of apoptosis were observed when cells were pre-treated with NO-Cbl followed by Apo2L/TRAIL treatment. Treatment for 36 h with NO-Cbl (100 μM) or Apo2L/TRAIL (100 ng/ml) induced 6.2% and 5.4% TUNEL-positive cells, respectively.

IκB kinase (IKK) = IκB kinase (IKK) activity assay with GST-IκBα-(1-54) and [γ32P]ATP; type: cell-based, human; settings: A375 pretreated with NO-Cbl
Method: FIG. 8 illustrates the assessment of IκB kinase (IKK) activity using recombinant GST-IκBα-(1-54) and [γ^32P]ATP as substrates. The phosphorylated GST fusion protein was detected by autoradiography. IKK activity was determined in A375 cells pretreated with NO-Cbl followed by Apo2L/TRAIL or TNF-α stimulation for 30 minutes and 15 minutes, respectively. […] Anti-β-actin antibody served as the irrelevant antibody with no phosphorylation of GST-IκBα-(1-54) observed.

IKK activity stimulated with Apo2L/TRAIL (IκB kinase (IKK); Apo2L/TRAIL 30 minutes): inhibited
IKK activity stimulated with TNF-α (IκB kinase (IKK); TNF-α 15 minutes): inhibited
Substance: nitrosylcobalamin [NO-Cbl]
tumor regression (A375 melanoma xenografts; A375 xenografts, nude mice): Tumor regression was observed
tumors smaller than the control tumors (A375 melanoma xenografts; after 25 days, NO-Cbl 50 mg/kg s.c. twice daily, Apo2L/TRAIL 50 mg/kg s.c. every other day, from day 2): 67.4%
TUNEL-positive cells (A375 cells): 6.2%
